Data as given in publication PMC9609496, “Synthesis, In Vitro Anti-Microbial Analysis and Molecular Docking Study of Aliphatic Hydrazide-Based Benzene Sulphonamide Derivatives as Potent Inhibitors of α-Glucosidase and Urease” (Molecules, 2022).
Where two headings read alike, the source gives them in different places.

Experiments:
urease = urease (Canavalia ensiformis, UniProt P07374); assay: biochemical; assay type: biochemical
Experimental: Figure S6. High resolution Proton NMR Spectrum of 3-chloro-N'- undecanoylbenzenesulfonohydrazide (4.13).
4.16. Urease Assay Protocol
The reaction mixtures, which included […] of enzyme solution and […] of buffers containing 100 mM urea, were incubated in 96-well plates at 30 °C for 15 min with […] of the test compounds (0.5 mM concentration). The urea concentrations were adjusted from 2 -24 mM for the kinetics evaluation. By quantifying ammonia production with Weatherburn's indophenol technique, urease activity was determined.. To each well, 45 μL of the phenol reagent (1% w/v phenol and 0.005% w/v sodium nitroprusside) and 70 μL of the alkali reagent (0.5% w/v NaOH and 0.1% active chloride NaOCl) were added. Using a microplate reader, the rising absorbance at 630 nm was observed after 50 minutes (Molecular Device, USA). In a final volume of […], each reaction was carried out three times. Using the software SoftMaxPro, the results (change in absorbance per minute) were processed (molecular Device, USA). The experiments were run at pH 6.8 throughout. The formula 100-(ODtest well/ODcontrol) 100 was […]
used to calculate the percentage of inhibition. Thiourea was used as the standard inhibitor for […]
4.17. α-Glucosidase Inhibitory Assay Protocol […]
phosphate buffer (pH=6.8), were incubated at 37°C for 15 min in a 96-well plate. 20 µl of p-nitrophenyl—D-glucopyranoside solution was further added as a substrate and again incubated for 20 min at 37 °C. Sodium carbonate (50 µl of 0.1M) was added to terminate the reaction. P-nitrophenol was liberated, during the reaction which was measured at 405n m u sing an ELISA […]
conditions by omitting test samples. All the experiments were carried out in triplicates. The percentage inhibition was calculated by the formula.
% Inhibition = [(Ac – As) /Ac] × 100 Ac-absorbance for control, As-absorbance for standard.
4.18. Molecular Docking Assay
In this study the synthesized compounds were analyzed against α-amylase and α-glucosidase enzyme. […]

Alternaria alternate = assay: Anti-fungal activity; assay type: cell-based; details: against Alternaria alternate, standard drug Terinafine
[1] = read-out: Anti-Urease IC50 (µM ± SEM)

urease, sequence (P07374 whole entry, looked up): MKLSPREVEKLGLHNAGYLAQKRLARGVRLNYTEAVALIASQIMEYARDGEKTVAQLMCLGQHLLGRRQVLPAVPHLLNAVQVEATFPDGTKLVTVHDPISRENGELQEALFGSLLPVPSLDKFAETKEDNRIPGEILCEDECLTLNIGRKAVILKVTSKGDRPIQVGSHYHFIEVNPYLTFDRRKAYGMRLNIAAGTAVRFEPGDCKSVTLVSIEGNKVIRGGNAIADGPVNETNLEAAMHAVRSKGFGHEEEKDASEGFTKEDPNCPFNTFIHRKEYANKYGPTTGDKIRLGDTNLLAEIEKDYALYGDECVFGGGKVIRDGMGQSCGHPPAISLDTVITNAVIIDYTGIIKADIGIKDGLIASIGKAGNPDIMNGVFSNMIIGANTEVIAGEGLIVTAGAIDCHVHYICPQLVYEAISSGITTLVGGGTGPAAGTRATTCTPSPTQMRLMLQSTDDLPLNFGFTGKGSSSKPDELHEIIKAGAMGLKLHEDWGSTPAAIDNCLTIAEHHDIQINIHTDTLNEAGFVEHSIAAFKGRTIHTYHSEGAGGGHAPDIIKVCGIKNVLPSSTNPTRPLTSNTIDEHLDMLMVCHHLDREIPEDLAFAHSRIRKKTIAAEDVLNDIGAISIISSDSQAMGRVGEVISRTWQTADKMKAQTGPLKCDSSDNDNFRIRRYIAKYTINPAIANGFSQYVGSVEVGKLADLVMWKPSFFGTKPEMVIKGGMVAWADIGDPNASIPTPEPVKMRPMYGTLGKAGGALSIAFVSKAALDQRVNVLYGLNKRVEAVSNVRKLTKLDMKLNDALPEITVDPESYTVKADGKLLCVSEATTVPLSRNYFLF

SMILES	IC50 (urease; [1]) [µM]	melting point [°C]	IC50 (urease) [µM]	anti-fungal activity (Alternaria alternate)
CCCCCCCCCCC(=O)NNS(=O)(=O)c1cccc(Cl)c1 [Analog 13, 3-chloro-N'-undecanoylbenzenesulfonohydrazide]	18.4 ± 0.3	168 to 169	–	–
NC(N)=S [thiourea, reference compound]	7.8	–	–	–
CCCCC(=O)NNS(=O)(=O)c1ccc(F)cc1[N+](=O)[O-] [Analog 5]	–	–	2.1 ± 0.1	exhibited anti-fungal profiles
